Test results taken from patent publication US10670605B2, “Cysteine reactive probes and uses thereof” (The Scripps Research Institute, priority 2015, dated 2020).
Each block holds one molecule with its values, some of them ahead of it.

Legend:
Experiment in all cases: Competitive isoTOP-ABPP, cell lysates
Format in all cases: binding
DDX59 C414 (Q5T1V6) = biological target: T1, DDX59 C414 (Q5T1V6) (Homo sapiens, UniProt Q5T1V6)
T1 sequence (Q5T1V6 1-619): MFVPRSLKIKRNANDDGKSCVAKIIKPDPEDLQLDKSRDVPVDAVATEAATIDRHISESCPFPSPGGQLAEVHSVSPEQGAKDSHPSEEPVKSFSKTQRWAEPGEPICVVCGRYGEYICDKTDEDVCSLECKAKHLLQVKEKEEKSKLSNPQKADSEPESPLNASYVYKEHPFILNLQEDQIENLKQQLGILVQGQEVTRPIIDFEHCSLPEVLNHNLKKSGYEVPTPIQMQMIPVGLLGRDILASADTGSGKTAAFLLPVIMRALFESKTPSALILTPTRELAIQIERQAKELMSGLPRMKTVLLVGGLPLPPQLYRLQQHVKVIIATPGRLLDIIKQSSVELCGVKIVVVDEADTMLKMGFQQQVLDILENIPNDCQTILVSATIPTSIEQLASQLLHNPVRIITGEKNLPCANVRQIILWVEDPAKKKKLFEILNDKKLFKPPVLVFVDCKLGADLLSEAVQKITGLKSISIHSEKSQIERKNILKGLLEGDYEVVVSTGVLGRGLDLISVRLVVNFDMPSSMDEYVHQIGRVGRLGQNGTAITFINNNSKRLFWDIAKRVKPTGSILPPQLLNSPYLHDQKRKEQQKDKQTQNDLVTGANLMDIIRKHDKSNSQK

IREB2 C137 (P48200) = biological target: T2, IREB2 C137 (P48200) (Homo sapiens, UniProt P48200)
T2 sequence (P48200 1-963): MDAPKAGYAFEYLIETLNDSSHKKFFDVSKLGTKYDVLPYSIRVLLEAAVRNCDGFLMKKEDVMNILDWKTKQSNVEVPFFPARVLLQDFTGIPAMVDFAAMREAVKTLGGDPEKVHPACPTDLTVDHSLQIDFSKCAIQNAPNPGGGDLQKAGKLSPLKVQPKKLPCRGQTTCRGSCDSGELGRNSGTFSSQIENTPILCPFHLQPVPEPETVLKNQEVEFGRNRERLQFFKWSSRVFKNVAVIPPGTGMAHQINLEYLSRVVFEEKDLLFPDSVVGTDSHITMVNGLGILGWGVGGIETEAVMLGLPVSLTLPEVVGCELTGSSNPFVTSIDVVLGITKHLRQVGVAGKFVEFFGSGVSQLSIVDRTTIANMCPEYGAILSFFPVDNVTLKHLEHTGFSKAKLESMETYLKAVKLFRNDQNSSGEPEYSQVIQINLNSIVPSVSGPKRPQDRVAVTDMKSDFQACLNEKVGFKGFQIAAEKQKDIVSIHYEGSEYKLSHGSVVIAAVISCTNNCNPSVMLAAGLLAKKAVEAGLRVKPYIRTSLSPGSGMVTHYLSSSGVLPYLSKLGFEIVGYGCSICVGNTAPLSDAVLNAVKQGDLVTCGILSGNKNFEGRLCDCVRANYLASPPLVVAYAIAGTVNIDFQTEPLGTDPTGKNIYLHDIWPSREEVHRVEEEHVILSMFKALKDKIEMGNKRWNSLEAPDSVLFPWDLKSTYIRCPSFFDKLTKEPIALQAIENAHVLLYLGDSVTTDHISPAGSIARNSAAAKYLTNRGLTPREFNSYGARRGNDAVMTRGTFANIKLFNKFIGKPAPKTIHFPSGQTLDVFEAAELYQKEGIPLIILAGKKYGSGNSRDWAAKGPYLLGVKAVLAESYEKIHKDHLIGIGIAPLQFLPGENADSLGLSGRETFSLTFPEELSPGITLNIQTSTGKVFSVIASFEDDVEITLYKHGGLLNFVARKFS

MGMT C145 (P16455) = biological target: T3, MGMT C145 (P16455) (Homo sapiens, UniProt P16455); conditions: for isoTOP-ABPP ratio (reactivity profile), P16455_C145: 500 μm in-vitro ramos; for isoTOP-ABPP reactivity ratio, P16455_C145 / isoTOP-ABPP reactivity profile ratio, P16455_C145: 500 μm
T3 sequence (P16455 1-207): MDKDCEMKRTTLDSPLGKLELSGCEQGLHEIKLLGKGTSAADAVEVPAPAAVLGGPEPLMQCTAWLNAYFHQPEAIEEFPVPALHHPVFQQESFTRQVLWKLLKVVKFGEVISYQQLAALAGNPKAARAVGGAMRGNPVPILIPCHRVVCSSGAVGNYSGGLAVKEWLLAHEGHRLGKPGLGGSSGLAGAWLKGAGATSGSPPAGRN

EZH2 C503 (Q15910) = EZH2 C503 (Q15910) (Homo sapiens, UniProt Q15910); conditions: for isoTOP-ABPP reactivity profile ratio, Q15910_C503: in-vitro_ramos_231
Sequence of EZH2 C503 (Q15910) (Q15910 whole entry): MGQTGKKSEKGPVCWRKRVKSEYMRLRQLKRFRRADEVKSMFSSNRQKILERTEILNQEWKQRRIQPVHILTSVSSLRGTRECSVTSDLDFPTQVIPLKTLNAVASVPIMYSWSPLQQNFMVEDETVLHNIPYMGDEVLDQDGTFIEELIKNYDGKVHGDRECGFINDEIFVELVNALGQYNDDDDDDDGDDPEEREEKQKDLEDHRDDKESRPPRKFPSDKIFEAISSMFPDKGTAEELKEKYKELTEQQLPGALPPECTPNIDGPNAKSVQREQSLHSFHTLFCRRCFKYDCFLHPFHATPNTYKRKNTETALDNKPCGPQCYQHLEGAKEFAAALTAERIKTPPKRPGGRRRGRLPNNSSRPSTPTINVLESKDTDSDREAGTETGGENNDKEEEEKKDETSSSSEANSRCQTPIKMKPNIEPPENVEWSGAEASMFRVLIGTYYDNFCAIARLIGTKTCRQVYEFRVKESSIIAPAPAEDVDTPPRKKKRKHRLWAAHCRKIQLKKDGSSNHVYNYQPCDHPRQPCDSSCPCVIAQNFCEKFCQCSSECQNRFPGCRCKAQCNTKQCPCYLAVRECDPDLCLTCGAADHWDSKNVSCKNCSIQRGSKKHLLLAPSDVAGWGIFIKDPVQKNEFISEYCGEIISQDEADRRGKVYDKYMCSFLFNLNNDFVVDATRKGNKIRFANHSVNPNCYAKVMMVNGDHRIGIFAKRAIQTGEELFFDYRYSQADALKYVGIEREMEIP
Sequence of EZH2 C503 (Q15910) (O75530 whole entry partner): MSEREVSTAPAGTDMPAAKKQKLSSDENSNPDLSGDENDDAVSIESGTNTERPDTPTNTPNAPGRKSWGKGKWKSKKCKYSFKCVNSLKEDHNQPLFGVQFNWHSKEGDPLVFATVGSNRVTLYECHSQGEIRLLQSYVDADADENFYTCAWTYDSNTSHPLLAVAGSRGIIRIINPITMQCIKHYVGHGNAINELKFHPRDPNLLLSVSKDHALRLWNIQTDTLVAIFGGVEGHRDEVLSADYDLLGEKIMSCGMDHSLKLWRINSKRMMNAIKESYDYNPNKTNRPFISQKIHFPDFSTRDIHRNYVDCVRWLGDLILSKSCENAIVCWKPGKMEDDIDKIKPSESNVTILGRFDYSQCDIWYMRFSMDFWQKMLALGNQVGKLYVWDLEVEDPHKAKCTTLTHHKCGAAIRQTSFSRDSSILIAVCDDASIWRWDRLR
Sequence of EZH2 C503 (Q15910) (Q15022 whole entry partner): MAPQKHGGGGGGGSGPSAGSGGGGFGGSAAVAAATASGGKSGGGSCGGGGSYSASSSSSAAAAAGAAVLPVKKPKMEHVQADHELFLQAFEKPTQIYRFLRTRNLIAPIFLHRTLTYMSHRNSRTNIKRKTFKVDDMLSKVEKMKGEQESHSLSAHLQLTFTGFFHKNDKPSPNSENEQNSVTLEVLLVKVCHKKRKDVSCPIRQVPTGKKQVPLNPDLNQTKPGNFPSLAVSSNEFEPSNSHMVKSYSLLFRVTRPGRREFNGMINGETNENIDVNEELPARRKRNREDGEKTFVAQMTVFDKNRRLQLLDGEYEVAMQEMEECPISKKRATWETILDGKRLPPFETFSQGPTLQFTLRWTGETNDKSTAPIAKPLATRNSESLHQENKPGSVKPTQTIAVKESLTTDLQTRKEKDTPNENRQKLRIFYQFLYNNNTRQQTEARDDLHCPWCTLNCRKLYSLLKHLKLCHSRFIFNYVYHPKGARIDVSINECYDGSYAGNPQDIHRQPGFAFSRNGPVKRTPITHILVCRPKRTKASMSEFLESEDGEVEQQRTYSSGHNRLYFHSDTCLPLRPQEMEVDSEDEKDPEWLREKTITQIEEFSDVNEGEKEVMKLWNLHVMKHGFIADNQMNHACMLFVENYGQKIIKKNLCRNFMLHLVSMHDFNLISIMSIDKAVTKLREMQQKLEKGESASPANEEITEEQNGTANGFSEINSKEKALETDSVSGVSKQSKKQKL

SMILES: CC(C)CCOCCNC(=O)CCl [compound 27]
isoTOP-ABPP ratio (reactivity profile), Q5T1V6_C414 (DDX59 C414 (Q5T1V6); 500 μm in-vitro ramos): 1.0 | isoTOP-ABPP ratio (reactivity profile), Q5T1V6_C414 (DDX59 C414 (Q5T1V6); 500 μm in-vitro ramos_231): 0.8 | isoTOP-ABPP ratio (reactivity profile), P48200_C137 (IREB2 C137 (P48200); 500 μm in-vitro ramos_231): 1.4 | isoTOP-ABPP ratio (reactivity profile), P16455_C145 (MGMT C145 (P16455)): 20.0

SMILES: COc1ccccc1OCCNC(=O)CCl [compound 28]
isoTOP-ABPP ratio (reactivity profile), P16455_C145 (MGMT C145 (P16455)): 20.0

SMILES: O=C(CCl)N1CCN(CC(=O)N2CCOCC2)CC1 [compound 29]
isoTOP-ABPP ratio (reactivity profile), Q15910_C503 (EZH2 C503 (Q15910); 500 μm in-vitro ramos_231): 1.4 | isoTOP-ABPP ratio (reactivity profile), P16455_C145 (MGMT C145 (P16455)): 20.0

SMILES: CCN(CC)c1ccc(S(N)(=O)=O)cc1NC(=O)CCl [compound 30]
isoTOP-ABPP reactivity ratio, Q5T1V6_C414 (DDX59 C414 (Q5T1V6); 500 μm, in-vitro_ramos): 2.0

SMILES: C=CC(=O)N(Cc1cccnc1)c1cc(C(F)(F)F)cc(C(F)(F)F)c1 [compound 31]
isoTOP-ABPP reactivity ratio, P16455_C145 (MGMT C145 (P16455); in-vitro_ramos): 1.0

SMILES: CC(C)(C)c1cc(NC(=O)CCl)on1 [compound 32]
isoTOP-ABPP reactivity ratio, Q15910_C503 (EZH2 C503 (Q15910); 500 μm, in-vitro_ramos): 1.7 | isoTOP-ABPP reactivity ratio, P16455_C145 (MGMT C145 (P16455); in-vitro_ramos): 20.0

SMILES: O=C(CCl)N(Cc1ccc(F)cc1)C12CC3CC(CC(C3)C1)C2 [compound 34]
isoTOP-ABPP reactivity ratio, Q5T1V6_C414 (DDX59 C414 (Q5T1V6); 500 μm, in-vitro_ramos_231): 0.6

SMILES: O=C(CCl)Nc1ccccc1C1CCCCCC1 [compound 35]
isoTOP-ABPP reactivity ratio, Q5T1V6_C414 (DDX59 C414 (Q5T1V6); 500 μm, in-vitro_ramos): 1.3 | isoTOP-ABPP reactivity ratio, P48200_C137 (IREB2 C137 (P48200); 500 μm, in-vitro_ramos): 1.1

Further lines, results first:

isoTOP-ABPP reactivity ratio, Q5T1V6_C414 (DDX59 C414 (Q5T1V6); 500 μm, in-vitro_ramos): 1.0 | isoTOP-ABPP reactivity ratio, P48200_C137 (IREB2 C137 (P48200); 500 μm, in-vitro_ramos): 0.9
SMILES: C=CC(=O)N1CCC(c2noc3ccc(F)cc23)CC1 [compound 37]

isoTOP-ABPP reactivity ratio, Q5T1V6_C414 (DDX59 C414 (Q5T1V6); 500 μm, in-vitro_ramos): 1.8 | isoTOP-ABPP reactivity ratio, Q5T1V6_C414 (DDX59 C414 (Q5T1V6); 500 μm, in-vitro_ramos_231): 0.9
SMILES: C=CC(=O)Nc1cc(F)c(N2CCN(C(=O)OC(C)(C)C)CC2)c(F)c1 [compound 38]

isoTOP-ABPP reactivity ratio, Q5T1V6_C414 (DDX59 C414 (Q5T1V6); 500 μm, in-vitro_ramos): 1.4 | isoTOP-ABPP reactivity ratio, P48200_C137 (IREB2 C137 (P48200); 500 μm, in-vitro_ramos): 1.1 | isoTOP-ABPP reactivity ratio, P16455_C145 (MGMT C145 (P16455); in-vitro_ramos): 1.0
SMILES: C=CC(=O)Nc1cc(C)c(Br)cc1C [compound 40]

isoTOP-ABPP reactivity ratio, Q5T1V6_C414 (DDX59 C414 (Q5T1V6); 500 μm, in-vitro_ramos): 1.0 | isoTOP-ABPP reactivity ratio, Q5T1V6_C414 (DDX59 C414 (Q5T1V6); 500 μm, in-vitro_ramos_231): 1.2 | isoTOP-ABPP reactivity ratio, P48200_C137 (IREB2 C137 (P48200); 500 μm, in-vitro_ramos_231): 1.2 | isoTOP-ABPP reactivity ratio, P16455_C145 (MGMT C145 (P16455); in-vitro_ramos_231): 1.9
SMILES: Cc1ccc(C=C(C#N)C(=O)NCCN2CCOCC2)cc1 [compound 41]

isoTOP-ABPP reactivity profile ratio, P16455_C145 (MGMT C145 (P16455); in-vitro_ramos): 0.9
SMILES: N#CC(=Cc1ccc(-c2ccccc2Cl)o1)C(N)=O [compound 42]

isoTOP-ABPP reactivity profile ratio, Q15910_C503 (EZH2 C503 (Q15910); 500 μm): 20.0
SMILES: COc1cc(NC(=O)CCl)cc(OC)c1 [compound 43]

isoTOP-ABPP reactivity profile ratio, P16455_C145 (MGMT C145 (P16455); in-vitro_ramos): 20.0
SMILES: O=C(CCl)Nc1cccc2ncccc12 [compound 51]

isoTOP-ABPP reactivity profile ratio, Q15910_C503 (EZH2 C503 (Q15910); 500 μm): 0.9 | isoTOP-ABPP reactivity profile ratio, P48200_C137 (IREB2 C137 (P48200); 500 μm, in-vitro_ramos): 1.3
SMILES: O=C(CCl)Nc1ccc(-c2ccccc2)cc1 [compound 52]

isoTOP-ABPP reactivity profile ratio, Q5T1V6_C414 (DDX59 C414 (Q5T1V6); 500 μm, in-vitro_ramos_231): 0.8 | isoTOP-ABPP reactivity profile ratio, P16455_C145 (MGMT C145 (P16455); in-vitro_ramos): 1.0
SMILES: C=CC(=O)N1CCC(Cc2ccccc2)CC1 [compound 53]
